Laboratory results from ChEMBL document CHEMBL1141535, “Benzothiazole based inhibitors of p38alpha MAP kinase” (Bioorg Med Chem Lett, 2008).

Assays:
[1] = target: Mitogen-activated protein kinase 14 (Homo sapiens, UniProt Q16539); experiment: Inhibition of p38alpha
PBMC = experiment: Inhibition of LPS-induced TNFalpha production in human PBMC; format: functional, cell-based
[2] = target: Platelet-derived growth factor receptor beta (Homo sapiens) (UniProt P09619); experiment: Inhibition of PDGFRbeta at 10 uM
[3] = target: Tyrosine-protein kinase HCK (Homo sapiens) (UniProt P08631); experiment: Inhibition of Hck at 10 uM
[4] = target: Tyrosine-protein kinase Fes/Fps (Homo sapiens) (UniProt P07332); experiment: Inhibition of FES at 10 uM
[5] = target: Tyrosine-protein kinase ABL1 (Homo sapiens) (UniProt P00519); experiment: Inhibition of Abl at 10 uM
[6] = AUC in Sprague-Dawley rat at 5 mg/kg, po; format: ADME, organism-based; parameters: dose 5 mg/kg, route oral; conditions: plasma
[7] = target: Ephrin type-A receptor 3 (Homo sapiens) (UniProt P29320); experiment: Inhibition of EphA3 at 10 uM
[8] = target: Protein kinase C alpha type (Homo sapiens) (UniProt P17252); experiment: Inhibition of PKCalpha at 10 uM
[9] = target: Serine/threonine-protein kinase Nek2 (Homo sapiens) (UniProt P51955); experiment: Inhibition of NEK2 at 10 uM
[10] = target: Megakaryocyte-associated tyrosine-protein kinase (Homo sapiens) (UniProt P42679); experiment: Inhibition of Hyl at 10 uM
[11] = target: MAP kinase-activated protein kinase 5 (Homo sapiens) (UniProt Q8IW41); experiment: Inhibition of MAPKAP-K5 at 10 uM
[12] = target: Glycogen synthase kinase-3 beta (Homo sapiens) (UniProt P49841); experiment: Inhibition of GSK3-beta at 10 uM
[13] = target: Ephrin type-B receptor 4 (Homo sapiens) (UniProt P54760); experiment: Inhibition of EphB4 at 10 uM
[14] = target: Fibroblast growth factor receptor 3 (Homo sapiens) (UniProt P22607); experiment: Inhibition of FGFR3 at 10 uM
[15] = target: Tyrosine-protein kinase Blk (Homo sapiens) (UniProt P51451); experiment: Inhibition of Blk at 10 uM
[16] = target: Tyrosine-protein kinase Lyn (Homo sapiens) (UniProt P07948); experiment: Inhibition of Lyn A at 10 uM
[17] = target: Serine/threonine-protein kinase Chk2 (Homo sapiens) (UniProt O96017); experiment: Inhibition of CHK2 at 10 uM
[18] = target: Tyrosine-protein kinase Lyn (Homo sapiens) (UniProt P07948); experiment: Inhibition of Lyn B at 10 uM
[19] = target: Tyrosine-protein kinase BTK (Homo sapiens) (UniProt Q06187); experiment: Inhibition of Btk at 10 uM
[20] = target: Protein kinase C beta type (Homo sapiens) (UniProt P05771); experiment: Inhibition of PKC-beta-2 at 10 uM
[21] = target: Protein-tyrosine kinase 6 (Homo sapiens) (UniProt Q13882); experiment: Inhibition of Brk at 10 uM
[22] = target: Ribosomal protein S6 kinase alpha-3 (Homo sapiens) (UniProt P51812); experiment: Inhibition of RSK2 at 10 uM
[23] = target: RAC-alpha serine/threonine-protein kinase (Homo sapiens) (UniProt P31749); experiment: Inhibition of Atk1 at 10 uM
[24] = target: Calcium/calmodulin-dependent protein kinase type II subunit alpha (Homo sapiens) (UniProt Q9UQM7); experiment: Inhibition of CaMK2-alpha at 10 uM
[25] = target: Phosphorylase b kinase gamma catalytic chain, liver/testis isoform (Homo sapiens) (UniProt P15735); experiment: Inhibition of PHKG2 at 10 uM
[26] = target: Proto-oncogene tyrosine-protein kinase Src (Homo sapiens) (UniProt P12931); experiment: Inhibition of Src at 10 uM
[27] = target: Fibroblast growth factor receptor 4 (Homo sapiens) (UniProt P22455); experiment: Inhibition of FGFR4 at 10 uM
[28] = target: MAP kinase-activated protein kinase 2 (Homo sapiens) (UniProt P49137); experiment: Inhibition of MAPKAP-K2 at 10 uM
[29] = target: Protein kinase C gamma type (Homo sapiens) (UniProt P05129); experiment: Inhibition of PKCgamma at 10 uM
[30] = target: Protein kinase C beta type (Homo sapiens) (UniProt P05771); experiment: Inhibition of PKCbeta1 at 10 uM
[31] = target: Interleukin-1 receptor-associated kinase 4 (Homo sapiens) (UniProt Q9NWZ3); experiment: Inhibition of IRAK4 at 10 uM
[32] = target: Protein kinase C delta type (Homo sapiens) (UniProt Q05655); experiment: Inhibition of PKCdelta at 10 uM
[33] = target: Receptor-type tyrosine-protein kinase FLT3 (Homo sapiens) (UniProt P36888); experiment: Inhibition of Flt3 at 10 uM
[34] = Bioavailability in Sprague-Dawley rat at 5 mg/kg, po; format: ADME, organism-based; conditions: in vivo
[35] = Inhibition of PKA at 10 uM
[36] = target: Epidermal growth factor receptor (Homo sapiens) (UniProt P00533); experiment: Inhibition of EGFR at 10 uM
[37] = target: Serine/threonine-protein kinase Chk1 (Homo sapiens) (UniProt O14757); experiment: Inhibition of CHK1 at 10 uM
[38] = Clearance in Sprague-Dawley rat at 2 mg/kg, iv; format: ADME, organism-based; parameters: dose 2 mg/kg, route intravenous; conditions: in vivo
[39] = target: Mitogen-activated protein kinase 1 (Homo sapiens) (UniProt P28482); experiment: Inhibition of ERK2 at 10 uM
[40] = target: Fibroblast growth factor receptor 2 (Homo sapiens) (UniProt P21802); experiment: Inhibition of FGFR2 at 10 uM
[41] = target: Tyrosine-protein kinase Fyn (Homo sapiens) (UniProt P06241); experiment: Inhibition of Fyn at 10 uM
[42] = target: Tyrosine-protein kinase Yes (Homo sapiens) (UniProt P07947); experiment: Inhibition of Yes at 10 uM
[43] = target: RAC-beta serine/threonine-protein kinase (Homo sapiens) (UniProt P31751); experiment: Inhibition of Atk2 at 10 uM
[44] = target: Fibroblast growth factor receptor 1 (Homo sapiens) (UniProt P11362); experiment: Inhibition of FGFR1 at 10 uM
[45] = target: MAP kinase-activated protein kinase 3 (Homo sapiens) (UniProt Q16644); experiment: Inhibition of MAPKAP-K3 at 10 uM
[46] = Half life in Sprague-Dawley rat at 2 mg/kg, iv; format: ADME, organism-based; parameters: dose 2 mg/kg, route intravenous; conditions: in vivo
[47] = target: Cytoplasmic tyrosine-protein kinase BMX (Homo sapiens) (UniProt P51813); experiment: Inhibition of Bmx at 10 uM
[48] = target: Hepatocyte growth factor receptor (Homo sapiens) (UniProt P08581); experiment: Inhibition of cMET at 10 uM
[49] = target: Tyrosine-protein kinase Fgr (Homo sapiens) (UniProt P09769); experiment: Inhibition of Fgr at 10 uM
[50] = target: Casein kinase II subunit alpha (Homo sapiens) (UniProt P68400); experiment: Inhibition of CK2-alpha-1 at 10 uM
[51] = target: Mitogen-activated protein kinase 3 (Homo sapiens) (UniProt P27361); experiment: Inhibition of ERK1 at 10 uM
[52] = target: Insulin-like growth factor 1 receptor (Homo sapiens) (UniProt P08069); experiment: Inhibition of IGF1R at 10 uM
[53] = target: Glycogen synthase kinase-3 alpha (Homo sapiens) (UniProt P49840); experiment: Inhibition of GSK3-alpha at 10 uM
[54] = target: RAC-gamma serine/threonine-protein kinase (Homo sapiens) (UniProt Q9Y243); experiment: Inhibition of Atk3 at 10 uM
[55] = target: Tyrosine-protein kinase Lck (Homo sapiens) (UniProt P06239); experiment: Inhibition of Lck at 10 uM
[56] = target: Tyrosine-protein kinase CSK (Homo sapiens) (UniProt P41240); experiment: Inhibition of Csk at 10 uM

Chain of Mitogen-activated protein kinase 14 (Q16539 whole entry): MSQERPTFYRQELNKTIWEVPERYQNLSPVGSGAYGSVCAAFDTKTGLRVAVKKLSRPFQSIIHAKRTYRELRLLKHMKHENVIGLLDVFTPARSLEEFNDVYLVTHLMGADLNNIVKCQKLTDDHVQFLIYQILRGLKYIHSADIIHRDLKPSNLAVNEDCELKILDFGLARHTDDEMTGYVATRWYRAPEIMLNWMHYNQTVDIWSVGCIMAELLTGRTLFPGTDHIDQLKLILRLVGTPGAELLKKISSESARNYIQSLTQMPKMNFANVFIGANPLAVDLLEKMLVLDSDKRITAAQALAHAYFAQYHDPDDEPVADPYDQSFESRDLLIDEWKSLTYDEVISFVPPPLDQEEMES
Chain of Tyrosine-protein kinase Lyn (Homo sapiens) (P07948 2-512 limits assumed): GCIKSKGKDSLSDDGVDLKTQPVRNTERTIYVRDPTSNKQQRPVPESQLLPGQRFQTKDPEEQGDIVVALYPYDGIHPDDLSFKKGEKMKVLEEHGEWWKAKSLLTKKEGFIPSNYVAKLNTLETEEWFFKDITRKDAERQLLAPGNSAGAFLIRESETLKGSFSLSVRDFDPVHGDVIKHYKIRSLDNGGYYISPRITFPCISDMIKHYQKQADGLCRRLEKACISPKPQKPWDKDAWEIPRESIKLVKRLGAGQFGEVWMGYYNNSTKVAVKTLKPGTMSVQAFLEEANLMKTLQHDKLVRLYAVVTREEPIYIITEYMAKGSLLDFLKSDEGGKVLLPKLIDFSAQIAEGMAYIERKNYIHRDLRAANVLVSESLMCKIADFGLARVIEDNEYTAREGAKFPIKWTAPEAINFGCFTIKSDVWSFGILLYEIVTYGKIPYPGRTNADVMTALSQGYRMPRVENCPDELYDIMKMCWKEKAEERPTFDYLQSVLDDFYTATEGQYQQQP
Chain of Protein kinase C beta type (Homo sapiens) (P05771 2-671 limits assumed): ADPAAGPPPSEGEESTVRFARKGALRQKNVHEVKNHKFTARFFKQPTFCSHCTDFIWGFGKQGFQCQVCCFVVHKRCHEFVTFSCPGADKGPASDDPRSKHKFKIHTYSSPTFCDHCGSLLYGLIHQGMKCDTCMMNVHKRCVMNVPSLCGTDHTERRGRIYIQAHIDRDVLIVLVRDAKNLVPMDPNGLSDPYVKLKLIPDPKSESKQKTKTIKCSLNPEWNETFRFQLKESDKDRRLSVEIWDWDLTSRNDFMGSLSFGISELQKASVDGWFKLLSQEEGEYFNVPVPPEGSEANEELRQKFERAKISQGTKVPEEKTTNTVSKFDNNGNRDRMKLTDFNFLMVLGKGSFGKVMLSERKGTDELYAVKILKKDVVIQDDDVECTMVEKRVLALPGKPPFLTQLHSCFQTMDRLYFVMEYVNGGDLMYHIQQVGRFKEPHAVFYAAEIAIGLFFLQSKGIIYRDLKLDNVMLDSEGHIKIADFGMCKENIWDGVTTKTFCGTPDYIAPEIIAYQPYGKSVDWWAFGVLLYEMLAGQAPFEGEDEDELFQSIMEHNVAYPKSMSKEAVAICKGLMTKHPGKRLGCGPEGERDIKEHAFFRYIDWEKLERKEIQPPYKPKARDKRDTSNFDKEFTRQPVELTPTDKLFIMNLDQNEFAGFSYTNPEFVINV
Chain of Ribosomal protein S6 kinase alpha-3 (Homo sapiens) (P51812 whole entry): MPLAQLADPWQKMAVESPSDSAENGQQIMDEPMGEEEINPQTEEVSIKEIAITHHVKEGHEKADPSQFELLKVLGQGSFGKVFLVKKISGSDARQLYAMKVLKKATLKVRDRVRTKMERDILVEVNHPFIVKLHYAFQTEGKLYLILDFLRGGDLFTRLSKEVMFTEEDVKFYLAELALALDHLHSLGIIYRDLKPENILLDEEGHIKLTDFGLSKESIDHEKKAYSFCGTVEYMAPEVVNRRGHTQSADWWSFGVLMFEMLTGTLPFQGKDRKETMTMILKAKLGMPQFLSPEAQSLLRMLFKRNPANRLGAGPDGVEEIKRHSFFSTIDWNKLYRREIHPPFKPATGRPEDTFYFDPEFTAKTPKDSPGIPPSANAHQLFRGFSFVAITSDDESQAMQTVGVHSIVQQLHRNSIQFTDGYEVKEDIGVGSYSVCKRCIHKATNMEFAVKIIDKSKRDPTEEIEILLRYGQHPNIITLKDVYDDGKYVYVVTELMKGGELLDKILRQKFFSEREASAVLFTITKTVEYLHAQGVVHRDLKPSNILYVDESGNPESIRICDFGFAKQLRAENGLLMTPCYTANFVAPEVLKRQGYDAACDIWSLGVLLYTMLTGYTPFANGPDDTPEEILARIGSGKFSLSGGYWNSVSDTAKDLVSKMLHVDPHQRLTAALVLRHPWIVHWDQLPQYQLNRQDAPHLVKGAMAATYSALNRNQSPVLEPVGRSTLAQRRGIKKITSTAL
Chain of RAC-alpha serine/threonine-protein kinase (Homo sapiens) (P31749 whole entry): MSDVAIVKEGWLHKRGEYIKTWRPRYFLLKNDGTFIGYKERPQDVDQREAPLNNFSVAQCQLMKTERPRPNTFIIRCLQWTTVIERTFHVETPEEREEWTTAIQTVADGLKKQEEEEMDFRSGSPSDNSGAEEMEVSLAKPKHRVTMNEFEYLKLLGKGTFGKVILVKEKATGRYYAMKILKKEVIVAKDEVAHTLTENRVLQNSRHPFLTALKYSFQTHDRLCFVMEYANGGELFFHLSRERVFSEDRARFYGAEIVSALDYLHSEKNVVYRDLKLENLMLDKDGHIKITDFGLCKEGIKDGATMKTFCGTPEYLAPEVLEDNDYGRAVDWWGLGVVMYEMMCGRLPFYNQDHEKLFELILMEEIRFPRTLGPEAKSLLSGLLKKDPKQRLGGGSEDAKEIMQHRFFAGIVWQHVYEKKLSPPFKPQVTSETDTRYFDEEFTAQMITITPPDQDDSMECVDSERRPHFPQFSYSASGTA
Chain of Cytoplasmic tyrosine-protein kinase BMX (Homo sapiens) (P51813 whole entry): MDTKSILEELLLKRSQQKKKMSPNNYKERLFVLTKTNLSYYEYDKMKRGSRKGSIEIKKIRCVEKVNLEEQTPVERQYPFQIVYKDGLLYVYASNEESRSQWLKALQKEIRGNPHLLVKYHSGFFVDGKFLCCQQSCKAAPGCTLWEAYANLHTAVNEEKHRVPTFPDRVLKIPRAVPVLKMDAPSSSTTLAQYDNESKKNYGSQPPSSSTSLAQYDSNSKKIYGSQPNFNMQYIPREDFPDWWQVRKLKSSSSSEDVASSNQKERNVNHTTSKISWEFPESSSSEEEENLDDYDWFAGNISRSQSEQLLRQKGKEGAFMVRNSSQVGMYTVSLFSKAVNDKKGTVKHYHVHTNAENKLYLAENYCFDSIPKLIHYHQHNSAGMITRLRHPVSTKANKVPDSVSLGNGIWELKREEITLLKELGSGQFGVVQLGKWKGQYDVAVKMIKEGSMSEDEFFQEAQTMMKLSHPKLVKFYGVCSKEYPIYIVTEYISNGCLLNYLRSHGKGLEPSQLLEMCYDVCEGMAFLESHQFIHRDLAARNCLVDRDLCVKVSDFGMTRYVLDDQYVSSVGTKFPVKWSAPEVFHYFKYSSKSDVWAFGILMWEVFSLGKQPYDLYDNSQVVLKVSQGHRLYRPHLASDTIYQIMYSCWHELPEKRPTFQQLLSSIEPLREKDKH
Chain of Serine/threonine-protein kinase Nek2 (Homo sapiens) (P51955 whole entry): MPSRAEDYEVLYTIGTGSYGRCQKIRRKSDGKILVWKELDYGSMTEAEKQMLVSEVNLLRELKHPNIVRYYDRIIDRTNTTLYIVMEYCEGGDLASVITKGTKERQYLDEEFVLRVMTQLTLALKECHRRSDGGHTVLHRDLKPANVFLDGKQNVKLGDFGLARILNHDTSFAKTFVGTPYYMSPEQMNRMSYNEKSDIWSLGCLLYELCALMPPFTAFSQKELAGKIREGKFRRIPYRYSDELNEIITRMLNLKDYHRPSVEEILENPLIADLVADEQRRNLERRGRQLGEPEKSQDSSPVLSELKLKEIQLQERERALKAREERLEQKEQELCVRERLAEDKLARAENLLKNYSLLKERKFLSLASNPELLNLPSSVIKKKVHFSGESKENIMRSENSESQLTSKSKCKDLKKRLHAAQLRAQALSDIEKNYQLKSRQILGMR
Chain of Calcium/calmodulin-dependent protein kinase type II subunit alpha (Homo sapiens) (Q9UQM7 whole entry, canonical isoform): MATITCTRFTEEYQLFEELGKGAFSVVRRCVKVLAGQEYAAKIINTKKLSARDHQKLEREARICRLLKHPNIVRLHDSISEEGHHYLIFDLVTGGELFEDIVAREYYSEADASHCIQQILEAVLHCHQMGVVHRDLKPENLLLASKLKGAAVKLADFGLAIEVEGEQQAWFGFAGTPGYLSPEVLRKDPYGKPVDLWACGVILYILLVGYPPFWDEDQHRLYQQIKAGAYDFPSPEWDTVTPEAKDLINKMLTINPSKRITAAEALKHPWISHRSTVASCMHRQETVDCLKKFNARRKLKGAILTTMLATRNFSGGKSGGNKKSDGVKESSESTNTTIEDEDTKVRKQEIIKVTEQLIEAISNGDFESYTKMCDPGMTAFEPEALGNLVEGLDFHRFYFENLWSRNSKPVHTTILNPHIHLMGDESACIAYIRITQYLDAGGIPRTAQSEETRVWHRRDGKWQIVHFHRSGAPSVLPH
Chain of RAC-beta serine/threonine-protein kinase (Homo sapiens) (P31751 whole entry): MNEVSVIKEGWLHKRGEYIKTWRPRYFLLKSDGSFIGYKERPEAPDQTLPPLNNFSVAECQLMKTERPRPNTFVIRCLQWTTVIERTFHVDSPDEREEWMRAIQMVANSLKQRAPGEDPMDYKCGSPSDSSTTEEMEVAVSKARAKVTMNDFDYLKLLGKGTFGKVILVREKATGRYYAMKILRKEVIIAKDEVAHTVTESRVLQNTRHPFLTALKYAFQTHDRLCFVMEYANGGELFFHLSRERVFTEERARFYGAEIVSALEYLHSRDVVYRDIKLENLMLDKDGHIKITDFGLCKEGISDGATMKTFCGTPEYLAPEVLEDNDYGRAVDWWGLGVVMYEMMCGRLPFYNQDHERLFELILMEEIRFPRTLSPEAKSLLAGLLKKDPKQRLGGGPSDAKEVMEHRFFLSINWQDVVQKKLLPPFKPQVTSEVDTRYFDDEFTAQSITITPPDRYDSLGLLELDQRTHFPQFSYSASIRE

CC[C@H](C)Nc1nc2ccc(-c3ocnc3-c3ccccc3F)cc2s1
IC50 [1]: 10 nM | IC50 (PBMC): 30 nM

CC[C@@H](C)Nc1nc2ccc(-c3ocnc3-c3ccccc3F)cc2s1
IC50 [1]: 6.5 nM | IC50 (PBMC): 27 nM

CC(C)Nc1nc2ccc(-c3ccnn3-c3ccc(F)cc3)cc2s1
IC50 [1]: 48 nM | IC50 (PBMC): > 250 nM

CC(C)Nc1nc2ccc(-c3ccnn3-c3ccccc3Cl)cc2s1
IC50 [1]: 175 nM

CC(C)Nc1nc2ccc(-c3[nH]cnc3-c3ccccc3)cc2s1
IC50 [1]: 7.1 nM | IC50 (PBMC): 107 nM

CC[C@@H](C)Nc1nc2ccc(-c3c(-c4ccccc4F)n[nH]c3N)cc2s1
inhibition [2]: < 20% | inhibition [3]: < 20% | inhibition [4]: < 20% | IC50 [1]: 3.2 nM | inhibition [5]: 65% | AUC [6]: 2.27 µM·h | inhibition [7]: < 20% | inhibition [8]: < 20% | inhibition [9]: < 20% | inhibition [10]: < 20% | inhibition [11]: < 20% | inhibition [12]: < 20% | inhibition [13]: < 20% | inhibition [14]: < 20% | inhibition [15]: < 20% | inhibition [16]: < 20% | inhibition [17]: < 20% | inhibition [18]: < 20% | inhibition [19]: < 20% | inhibition [20]: < 20% | inhibition [21]: < 20% | inhibition [22]: < 20% | inhibition [23]: < 20% | inhibition [24]: < 20% | inhibition [25]: < 20% | inhibition [26]: < 20% | inhibition [27]: < 20% | inhibition [28]: < 20% | inhibition [29]: < 20% | inhibition [30]: < 20% | inhibition [31]: < 20% | inhibition [32]: < 20% | inhibition [33]: 68% | bioavailability [34]: 24% | inhibition [35]: < 20% | inhibition [36]: < 20% | inhibition [37]: < 20% | clearance [38]: 23.3 mL/min/kg | inhibition [39]: < 20% | inhibition [40]: < 20% | inhibition [41]: < 20% | inhibition [42]: < 20% | inhibition [43]: < 20% | inhibition [44]: < 20% | inhibition [45]: < 20% | half-life [46]: 102 min | inhibition [47]: < 20% | inhibition [48]: < 20% | inhibition [49]: 54% | IC50 (PBMC): 39 nM | inhibition [50]: < 20% | inhibition [51]: < 20% | inhibition [52]: < 20% | inhibition [53]: < 20% | inhibition [54]: < 20% | inhibition [55]: < 20% | inhibition [56]: < 20%

Nc1nc2ccc(-c3ocnc3-c3ccccc3F)cc2s1
IC50 [1]: 16 nM | IC50 (PBMC): 247 nM

CC(C)Nc1nc2ccc(-c3ocnc3-c3ccccc3)cc2s1
IC50 [1]: 21 nM | IC50 (PBMC): 96 nM

CC[C@@H](C)Nc1nc2ccc(-c3[nH]cnc3-c3ccccc3F)cc2s1
IC50 [1]: 1.6 nM | IC50 (PBMC): 13 nM

CC(C)Nc1nc2ccc(-c3c(-c4ccccc4F)n[nH]c3N)cc2s1
IC50 [1]: 3.7 nM | IC50 (PBMC): 51 nM

Cc1cccc(-n2nccc2-c2ccc3nc(NC(C)C)sc3c2)c1
IC50 [1]: 33 nM | IC50 (PBMC): 171 nM

CC[C@H](C)Nc1nc2ccc(-c3[nH]cnc3-c3ccccc3F)cc2s1
IC50 [1]: 2.7 nM | IC50 (PBMC): 20 nM

CC(C)Nc1nc2ccc(-c3ccnn3-c3cccc(Cl)c3)cc2s1
IC50 [1]: 72 nM | IC50 (PBMC): 232 nM

Cc1ccccc1-n1nccc1-c1ccc2nc(NC(C)C)sc2c1
IC50 [1]: 146 nM

CC(C)Nc1nc2ccc(-c3ccnn3-c3cccc(F)c3)cc2s1
IC50 [1]: 33 nM | IC50 (PBMC): 171 nM

CC[C@@H](C)Nc1nc2ccc(-c3c(-c4ccccc4F)nn(C)c3N)cc2s1
IC50 [1]: 11 nM | IC50 (PBMC): 118 nM

CC[C@@H](C)Nc1nc2ccc(-c3c(-c4ccccc4F)nn(CC)c3N)cc2s1
IC50 [1]: 17 nM | IC50 (PBMC): > 250 nM

CC(C)Nc1nc2ccc(-c3ccnn3-c3ccccc3F)cc2s1
IC50 [1]: 20 nM | IC50 (PBMC): 249 nM

Fc1ccccc1-c1ncoc1-c1ccc2ncsc2c1
IC50 [1]: 47 nM | IC50 (PBMC): > 250 nM

CC(C)Nc1nc2ccc(-c3ccnn3-c3ccc(Cl)cc3)cc2s1
IC50 [1]: > 1000 nM

CC(C)Nc1nc2ccc(-c3[nH]cnc3-c3ccccc3F)cc2s1
IC50 [1]: 3.3 nM | IC50 (PBMC): 35 nM

CC[C@H](C)Nc1nc2ccc(-c3c(-c4ccccc4F)n[nH]c3N)cc2s1
IC50 [1]: 5.5 nM | IC50 (PBMC): 77 nM

CCNc1nc2ccc(-c3ocnc3-c3ccccc3F)cc2s1
IC50 [1]: 12 nM | IC50 (PBMC): 167 nM

CC(C)Nc1nc2ccc(-c3ocnc3-c3ccccc3F)cc2s1
IC50 (PBMC): 40 nM

CC(C)Nc1nc2ccc(-c3ccnn3-c3ccccc3)cc2s1
IC50 [1]: 21 nM | IC50 (PBMC): 213 nM

Cc1ccc(-n2nccc2-c2ccc3nc(NC(C)C)sc3c2)cc1
IC50 [1]: > 1000 nM
